Data: US20120220581A1, “IMIDAZO[1,2-b]PYRIDAZINE DERIVATIVES AND THEIR USE AS PDE10 INHIBITORS” (Janssen-Cilag, S.A., priority 2009, published 2012)
Like-named read-outs stand apart in the source and are kept apart here.

Experiments:
[1] = system: female hooded-Lister rats; experiment: Object recognition test (NOR) after sub-chronic PCP; format: in vivo, rat; conditions: for LMA (no. of lines crossed): mean
Experimental: 60 female hooded-Lister rats (Charles River, UK) were used as subjects for these studies and weighed 248 g±20 g. Rats were allowed at least a 7-day acclimatization period to the animal unit prior to commencement of experimentation. Rats were housed in groups of 5 under standard laboratory conditions under a 12 h light:dark cycle, lights on at 0700 h. All testing was carried out in the light phase. Food and water were freely provided. All experiments were conducted in accordance with the Animals Scientific Procedures Act, U.K. 1986 and were approved by the University of Bradford ethical review panel.
40 mg of test compound was dissolved in 5 ml of 40% hydroxypropyl β-cyclodextrin (HPBC) solution. The solution was sonicated until completely dissolved. 2 ml of sterile water was added and the pH measured and adjusted with NaOH solution (0.1N) to obtain pH ˜4. Finally, sterile water was added to a final volume of 10 ml. This stock solution was then diluted in 20% HPBC to obtain the final concentrations. 100 mg of PQ10 was dissolved in a 40% HPBC solution and 8 mg of tartaric acid. The solution was sonicated until completely dissolved. 5 ml of sterile water was added and the pH measured and adjusted with NaOH solution (0.1N) to obtain pH ˜4. Finally sterile water was added to a final volume of 10 ml.
Test compound was administered at doses of 0.3 and 1.0 mg/kg via the oral route 30 min prior to testing.
PQ10 was administered at a dose of 1.0 mg/kg via the oral route 30 min prior to testing.
Certain pre-clinical tests allow the observation of relatively subtle cognitive deficits in the rat that resemble cognitive symptoms in subjects with schizophrenia. The cognitive deficits observed are seen in behaviours such as episodic memory, which can be measured by recognition tasks such as the novel object recognition (NOR) paradigm. A recognition memory task allows the comparison between presented stimuli and previously stored information. Ennaceur, A Delacour, J (1988) A new one-trial test for neurobiological studies of memory in rats Behav Brain Res 31: 47-59 described the NOR test in rats which was based on the differential exploration of familiar and new objects. The NOR test is a non-rewarded, ethologically relevant paradigm based on the spontaneous exploratory behaviour of rats that measures episodic memory. Each session consists of two trials. In the first trial, the rats are exposed to two identical objects in an open field. During the second trial, rats are exposed to two dissimilar objects, one familiar object from the first trial and one new object. Object recognition in rats can be measured as the difference in time spent exploring the familiar and the new object. […] The duration of each trial is also important as a preference for the novel object only lasts during the first 1 or 2 minutes, after which time preference diminishes as both objects become familiar and are explored equally.
Rats were randomly assigned to the 8 treatment groups
Rats were allowed to habituate to the empty test box and the behavioural test room environment for 1 h on day 1. Prior to behavioural testing on day 2 rats were given a further 3 min habituation.
Following the 3 min habituation period, the rats were given two 3 min trials (T1 and T2) which were separated by a 1 min inter-trial interval in the home cage during which the objects were changed.
In this trial, the animals were allowed to explore two identical objects (A1 and A2) for 3 min.
In this trial, the animals explored a familiar object (A) from T1 and a novel object (B) for 3 min. The familiar object presented during T2 was a duplicate of the object presented in T1 in order to avoid any olfactory trails.
The object exploration was defined by animals licking, sniffing or touching the object with the forepaws whilst sniffing, but not leaning against, turning around, standing or sitting on the object. […]

[2] = molecular target: T1, Rat recombinant PDE10A (rPDE10A2) (Rattus norvegicus, UniProt Q9QYJ6); experiment: In vitro assay PDE10A (SPA, 3H-cAMP); format: biochemical
T1 construct: inferred from the Ni metal chelate purification; made in house; host or cells: Sf9 insect cells (baculovirus)
T1 sequence (Q9QYJ6 1-794): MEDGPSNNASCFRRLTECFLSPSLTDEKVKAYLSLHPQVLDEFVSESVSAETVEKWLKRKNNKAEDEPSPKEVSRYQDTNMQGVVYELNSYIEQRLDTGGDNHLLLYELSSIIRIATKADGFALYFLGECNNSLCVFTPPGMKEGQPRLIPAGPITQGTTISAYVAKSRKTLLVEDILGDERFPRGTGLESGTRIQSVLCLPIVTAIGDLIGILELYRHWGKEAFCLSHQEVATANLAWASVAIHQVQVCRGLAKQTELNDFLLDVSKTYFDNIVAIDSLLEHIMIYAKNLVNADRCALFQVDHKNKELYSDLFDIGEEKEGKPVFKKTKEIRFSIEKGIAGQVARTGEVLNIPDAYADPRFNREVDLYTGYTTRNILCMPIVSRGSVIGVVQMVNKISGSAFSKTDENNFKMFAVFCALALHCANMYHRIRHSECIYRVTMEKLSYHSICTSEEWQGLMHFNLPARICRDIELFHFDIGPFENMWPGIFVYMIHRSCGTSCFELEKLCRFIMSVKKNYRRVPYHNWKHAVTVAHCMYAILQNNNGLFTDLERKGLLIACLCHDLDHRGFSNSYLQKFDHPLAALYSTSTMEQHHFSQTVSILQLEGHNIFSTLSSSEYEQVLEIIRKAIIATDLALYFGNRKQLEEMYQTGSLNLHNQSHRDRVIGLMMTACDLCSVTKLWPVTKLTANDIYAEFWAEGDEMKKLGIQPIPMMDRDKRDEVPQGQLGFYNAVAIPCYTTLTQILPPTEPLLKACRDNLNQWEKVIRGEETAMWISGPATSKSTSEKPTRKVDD
Procedure, shortened: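 Rat PDE10A2 expressed in Sf9 cells and Ni-purified; incubated with 60 nM cAMP plus 0.008 μCi 3H-cAMP in 50 mM Tris pH 7.8, 8.3 mM MgCl2, 1.7 mM EGTA for 60 min at room temperature. Product quantified by scintillation proximity counting; final DMSO 1%.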

| Compound | LMA (no. of lines crossed) ([1]; PCP + 0.3 mg/kg p.o.) | LMA (no. of lines crossed) ([1]; PCP + 1 mg/kg p.o.) | effects of acute treatment in the NOR task ([1]; acute treatment, oral route 30 min prior to testing, compound 1 0.3-1.0 mg/kg, PQ10 1.0 mg/kg, sub-chronic PCP female rats) | IC50 ([2]; Table 4 in vitro selectivity, read-out: PDE 10A2 (expressed as pIC50) (converted)) | IC50 ([2]; pIC50 corresponds to the −log IC50 expressed in mol/L, read-out: PDE10A2 pIC50 (converted)) |
| --- | --- | --- | --- | --- | --- |
| COCCc1ccc(-c2c(C)nc3c(N4CCOCC4)ccnn23)cn1 [compound 1, 3-[6-(2-methoxyethyl)-3-pyridinyl]-2-methyl-8-(4-morpholinyl)-imidazo[1,2-b]pyridazine] | 56.5 no. of lines crossed | 56.4 no. of lines crossed | selective for the retention phase | – | – |
| COCCOc1ccc(-c2c(C)nc3c(-c4ccncc4)ccnn23)cn1 [compound 21, 3-[6-(2-methoxyethoxy)-3-pyridinyl]-2-methyl-8-(4-pyridinyl)-imidazo[1,2-b]pyridazine] | – | – | – | 102 nM | 102 nM |
